Test results from ChEMBL document CHEMBL1147554, “Novel pyrrole-containing progesterone receptor modulators” (Bioorg Med Chem Lett, 2004).
Calls of active or inactive are those of the source. No cut-off for these calls is given here.

What was measured:
[1] = Displacement of [3H]progesterone at progesterone receptor of T47D cells; format: cell-based, Homo sapiens
[2] = target: T1, Progesterone receptor (Homo sapiens, UniProt P06401); assay: Agonistic activity measures the ability to induce alkaline phosphatase in T47D human breast cancer cell line; format: functional, cell-based
T1 sequence (P06401 whole entry): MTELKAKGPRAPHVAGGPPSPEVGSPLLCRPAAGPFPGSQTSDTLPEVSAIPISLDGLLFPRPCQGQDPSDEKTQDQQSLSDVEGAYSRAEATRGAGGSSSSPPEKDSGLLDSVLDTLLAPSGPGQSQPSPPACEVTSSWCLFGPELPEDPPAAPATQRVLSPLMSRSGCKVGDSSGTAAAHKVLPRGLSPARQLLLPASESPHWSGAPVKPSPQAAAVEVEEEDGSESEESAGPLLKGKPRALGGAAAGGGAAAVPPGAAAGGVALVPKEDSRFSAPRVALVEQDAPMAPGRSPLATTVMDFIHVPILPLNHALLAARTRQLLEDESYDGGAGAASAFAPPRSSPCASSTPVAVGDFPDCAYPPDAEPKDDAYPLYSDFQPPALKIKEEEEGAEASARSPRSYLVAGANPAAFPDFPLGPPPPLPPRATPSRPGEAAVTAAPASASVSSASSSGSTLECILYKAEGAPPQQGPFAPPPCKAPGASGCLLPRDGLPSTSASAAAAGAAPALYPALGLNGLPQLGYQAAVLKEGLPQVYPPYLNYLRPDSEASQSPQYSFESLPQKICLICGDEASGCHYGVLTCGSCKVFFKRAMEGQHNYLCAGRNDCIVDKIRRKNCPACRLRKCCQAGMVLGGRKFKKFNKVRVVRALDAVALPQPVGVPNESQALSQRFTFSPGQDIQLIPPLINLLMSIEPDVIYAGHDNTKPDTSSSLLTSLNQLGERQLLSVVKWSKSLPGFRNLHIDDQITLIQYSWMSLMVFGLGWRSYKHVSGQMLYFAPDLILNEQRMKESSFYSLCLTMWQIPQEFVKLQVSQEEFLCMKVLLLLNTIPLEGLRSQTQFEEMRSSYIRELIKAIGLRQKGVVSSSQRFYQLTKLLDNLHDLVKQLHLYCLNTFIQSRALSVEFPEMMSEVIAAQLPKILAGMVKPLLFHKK

[3] = target: T1, Progesterone receptor; assay: Ability to block progesterone induced alkaline phosphatase activity in T47D human breast cancer cell line; format: functional, cell-based
[4] = target: T2, Progesterone receptor (Rattus norvegicus) (UniProt Q63449); assay: Percentage inhibition of progesterone-induced stimulation when administered orally at 3 mg/kg in rat decidualization assay; format: functional, organism-based; parameters: dose 3 mg/kg
T2 sequence (whole entry): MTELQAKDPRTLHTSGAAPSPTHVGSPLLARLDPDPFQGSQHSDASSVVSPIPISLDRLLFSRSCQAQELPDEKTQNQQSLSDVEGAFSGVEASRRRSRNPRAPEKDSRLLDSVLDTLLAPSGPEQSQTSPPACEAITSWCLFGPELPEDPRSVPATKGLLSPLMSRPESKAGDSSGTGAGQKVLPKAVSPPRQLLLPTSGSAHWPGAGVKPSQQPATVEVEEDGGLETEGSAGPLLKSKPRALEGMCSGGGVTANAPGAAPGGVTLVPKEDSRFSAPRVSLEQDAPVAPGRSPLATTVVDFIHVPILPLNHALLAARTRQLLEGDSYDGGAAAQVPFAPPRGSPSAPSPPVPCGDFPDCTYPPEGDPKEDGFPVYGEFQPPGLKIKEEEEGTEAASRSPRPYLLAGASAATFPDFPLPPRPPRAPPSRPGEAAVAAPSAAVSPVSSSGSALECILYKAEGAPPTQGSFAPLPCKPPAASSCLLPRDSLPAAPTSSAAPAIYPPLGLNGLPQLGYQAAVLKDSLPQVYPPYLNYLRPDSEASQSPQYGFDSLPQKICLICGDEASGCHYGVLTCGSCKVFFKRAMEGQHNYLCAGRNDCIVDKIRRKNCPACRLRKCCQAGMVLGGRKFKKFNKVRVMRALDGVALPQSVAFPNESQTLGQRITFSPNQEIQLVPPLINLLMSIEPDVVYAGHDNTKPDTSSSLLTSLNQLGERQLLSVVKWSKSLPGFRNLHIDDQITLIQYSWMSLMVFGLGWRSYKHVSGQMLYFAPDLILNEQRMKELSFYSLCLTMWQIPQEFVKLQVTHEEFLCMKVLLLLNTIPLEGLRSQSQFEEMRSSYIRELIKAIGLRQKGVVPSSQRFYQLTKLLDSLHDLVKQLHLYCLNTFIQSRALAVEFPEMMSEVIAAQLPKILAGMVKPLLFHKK

[5] = target: T1, Progesterone receptor; assay: Agonistic activity as progesterone receptor induced alkaline phosphatase activity in T47D human breast cancer cells; format: functional, cell-based
[6] = target: T2, Progesterone receptor (Rattus norvegicus); assay: Percentage inhibition of progesterone-induced stimulation when administered orally at 10 mg/kg in rat decidualization assay; format: functional, organism-based; parameters: dose 10 mg/kg
[7] = target: T3, Progesterone receptor (Homo sapiens) (UniProt P06401); assay: Efficacy in vitro relative to P4 in progesterone receptor induced alkaline phosphatase T47D cell assay; format: functional, cell-based
T3 sequence (whole entry): T1 sequence (P06401 whole entry)

[8] = target: T4, Androgen receptor (Homo sapiens) (UniProt P10275); assay: Agonistic activity for androgen receptor up to 10 uM; Not active; format: functional
T4 sequence (whole entry): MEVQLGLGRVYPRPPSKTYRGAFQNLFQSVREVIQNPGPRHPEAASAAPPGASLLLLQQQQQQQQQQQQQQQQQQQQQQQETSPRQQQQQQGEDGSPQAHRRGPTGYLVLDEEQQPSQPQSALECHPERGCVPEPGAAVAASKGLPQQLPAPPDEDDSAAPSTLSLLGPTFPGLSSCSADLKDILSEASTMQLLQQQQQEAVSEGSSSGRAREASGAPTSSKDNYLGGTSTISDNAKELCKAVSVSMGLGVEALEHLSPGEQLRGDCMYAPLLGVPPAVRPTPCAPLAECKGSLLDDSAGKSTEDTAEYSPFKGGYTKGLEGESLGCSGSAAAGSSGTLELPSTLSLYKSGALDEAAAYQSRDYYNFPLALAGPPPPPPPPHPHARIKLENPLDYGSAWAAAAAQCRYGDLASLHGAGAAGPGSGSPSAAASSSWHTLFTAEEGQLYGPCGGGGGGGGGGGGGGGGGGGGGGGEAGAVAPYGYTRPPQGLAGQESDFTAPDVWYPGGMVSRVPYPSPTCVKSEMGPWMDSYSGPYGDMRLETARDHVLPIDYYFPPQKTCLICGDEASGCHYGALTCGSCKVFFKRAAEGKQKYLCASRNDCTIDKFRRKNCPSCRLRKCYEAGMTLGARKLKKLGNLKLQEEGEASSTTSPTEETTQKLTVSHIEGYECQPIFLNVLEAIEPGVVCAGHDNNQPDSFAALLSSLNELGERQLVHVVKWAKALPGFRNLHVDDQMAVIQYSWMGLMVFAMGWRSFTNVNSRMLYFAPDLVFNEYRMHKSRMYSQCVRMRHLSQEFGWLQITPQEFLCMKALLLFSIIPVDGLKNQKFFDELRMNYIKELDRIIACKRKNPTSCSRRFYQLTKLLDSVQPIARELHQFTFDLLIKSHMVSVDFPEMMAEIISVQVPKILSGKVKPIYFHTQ

[9] = Agonistic activity for glucocorticoid receptor up to 10 uM; Not active; format: functional
[10] = Antagonist activity for glucocorticoid receptor; format: functional
[11] = target: T5, Androgen receptor (Homo sapiens, UniProt P10275); assay: Antagonist activity for androgen receptor; format: functional
T5 sequence (P10275 whole entry): T4 sequence (whole entry)

| SMILES | IC50 [1] [nM] | EC50 [2] [nM] | IC50 [3] [µM] | other results |
| --- | --- | --- | --- | --- |
| CC(=O)[C@H]1CC[C@H]2[C@@H]3CCC4=CC(=O)CC[C@]4(C)[C@H]3CC[C@]12C [PROGESTERONE] | 3.4 | – | – | – |
| CC1(C)OC(=O)Nc2ccc(-c3ccc(C#N)o3)cc21 | – | ~3000 | 0.065 | – |
| CC1(C)OC(=O)Nc2ccc(-c3ccc(C=O)[nH]3)cc21 | – | ~1000 | > 3 | – |
| CC1(C)OC(=O)Nc2ccc(-c3[nH]ccc3C#N)cc21 | – | > 1000 | > 3 | – |
| CCn1c(C#N)ccc1-c1ccc2c(c1)C(C)(C)OC(=O)N2 | 9.4 | – | ~3 | EC50 [5]: 1.8 nM; inhibition [6]: 30%; Efficacy [7]: 80% |
| N#Cc1cccc(-c2ccc3c(c2)C2(CCCCC2)C(=O)N3)c1 | – | – | – | Activity [8]: inactive; Activity [9]: inactive; IC50 [10]: > 1000 nM; IC50 [11]: > 1000 nM |
| Cn1c(C#N)ccc1-c1ccc2c(c1)C1(CCCCC1)C(=O)N2 | 3.4 | 2.8 | > 3 | – |
| Cn1c(C#N)ccc1-c1ccc2c(c1)C(C)(C)OC(=O)N2 | 4.9 | – | > 3 | EC50 [5]: 1.1 nM; inhibition [6]: 50%; Efficacy [7]: 80% |
| CC1(C)OC(=O)Nc2ccc(-c3ccc(C#N)[nH]3)cc21 | 29 | 2.1 | > 3 | – |
| CC1(C)OC(=O)Nc2ccc(-c3ccc[nH]3)cc21 | – | > 3000 | ~3 | – |
| CC1(C)OC(=O)Nc2ccc(-c3ccc([N+](=O)[O-])[nH]3)cc21 | – | ~1000 | 0.18 | – |
| Cn1c(-c2ccc3c(c2)C(C)(C)OC(=O)N3)cnc1C#N | – | 130 | > 3 | – |
| CC1(C)OC(=O)Nc2ccc(-c3ccc(C#N)s3)cc21 | – | ~1000 | 0.023 | – |
| Cn1ccc(C#N)c1-c1ccc2c(c1)C(C)(C)OC(=O)N2 | – | > 1000 | ~3 | – |
| CC1(C)OC(=O)Nc2ccc(-c3cnc(C#N)o3)cc21 | – | > 1000 | ~3 | – |
| CC1(C)OC(=O)Nc2ccc(-c3cccc(C#N)c3)cc21 | 18 | ~1000 | 0.008 | – |

The next lines start with results.

| IC50 [1] [nM] | EC50 [2] [nM] | IC50 [3] [µM] | SMILES | other results |
| --- | --- | --- | --- | --- |
| 0.7 | – | – | CC#C[C@]1(O)CC[C@H]2[C@@H]3CCC4=CC(=O)CCC4=C3[C@@H](c3ccc(N(C)C)cc3)C[C@@]21C [MIFEPRISTONE] | – |
| – | > 1000 | ~2 | CC1(C)OC(=O)Nc2ccc(-c3c[nH]c(C#N)c3)cc21 | – |
| – | 60 | > 3 | N#Cc1ccc(-c2ccc3c(c2)C2(CCCCC2)C(=O)N3)[nH]1 | – |
| – | > 1000 | 0.036 | O=C1Nc2ccc(-c3ccc([N+](=O)[O-])[nH]3)cc2C12CCCCC2 | inhibition [4]: 50% |
| – | ~1000 | > 3 | CC1(C)OC(=O)Nc2ccc(-c3ccc(C(=O)C(F)(F)F)[nH]3)cc21 | – |
| 88 | > 1000 | 0.041 | Cn1cc(-c2ccc3c(c2)C(C)(C)OC(=O)N3)cc1C#N | – |
